The values below come from patent US12023334B2, “Composition including rilpivirine and method for treating tumors or cancer” (APTORUM THERAPEUTICS LIMITED, priority 2019, dated 2024).

The structures appear in SMILES notation.

What all share (type): cell-based
In one experiment the test system is SK-N-BE(2) cell line. Nature of the experiment: MTT cell proliferation assay, SK-N-BE(2). As for the experimental part: (§1) In the present invention, the IC50 concentrations required to inhibit the activity of IMR-32 cell line and other neuroblastoma cell lines were determined for rilpivirine and other chemotherapeutic agents, and presented on the two-coordinate plot with x- and y-axes, forming the two points (IC50, rilpivirine, 0) and (0, IC50, chemotherapeutic agents). […] Moreover, the concentration or ratios of rilpivirine in combination with chemotherapeutic agents which provide the same inhibition effect are denoted as point (Crilpivirine, 50, Cchemotherapeutic agents, 50) in the same plot.
(§2) The combination index provides a quantitative measurement of the drug-drug interaction at the given effect level. The combination index (CI) is calculated by following equation: […]
(§3) The IMR-32, SK-N-SH, SH-SY5Y and SK-N-BE(2) tumor cell lines were purchased from American Type Culture Collection (ATCC, Manassas, VA). […] The cells were incubated for 72 hours and then cell proliferation was measured by 3-(4,5-dimethyl-2-thiazolyl)-2,5-diphenyl-2H-tetrazolium bromide (MTT) colorimetric assays (Sigma-Aldrich, Inc., St. Louis, MO). […] Absorbance of each well was measured with a spectrophotometer (uQuant SpectroMAX Gemini Dual-scanning microplate spectro, Bio-tek Instrument Inc.) at 550 nm. Growth inhibition was expressed as the ratio of the mean absorbance of treated cells relative to that of the control.

Another experiment deals with GA-10. Briefly: EC50 in cancer cell line, rilpivirine alone. As to conditions: Homo sapiens, Burkitt's lymphoma.
The next experiment has as its system Caki-2. Nature of the experiment: EC50 in cancer cell line, rilpivirine alone. As to conditions: Homo sapiens, Kidney.
The subject of a further experiment is EB2. Nature of the experiment: EC50 in cancer cell line, rilpivirine alone. The conditions noted are these: Homo sapiens, Burkitt's lymphoma.
A further experiment relates to PANC-1. Briefly: EC50 in cancer cell line, rilpivirine alone. As to conditions: Homo sapiens, Pancreas.
For the next experiment, the system named is Daudi. Briefly: EC50 in cancer cell line, rilpivirine alone. The conditions noted are these: Homo sapiens, Burkitt's lymphoma.
Another experiment concerns IM-9. Briefly: EC50 in cancer cell line, rilpivirine alone. As to conditions: Homo sapiens, Multiple myeloma.
Another experiment deals with HuTu80. Nature of the experiment: EC50 in cancer cell line, rilpivirine alone. As to conditions: Homo sapiens, Duodenum.
Experiment [1] has as its system cleaved poly (ADP-ribose) polymerase (PARP) and phosphor-histone H2A.X (p-H2A.X). Nature of the experiment: Expression of cleaved PARP and p-H2A.X in SK-N-BE(2). As to conditions: increasing rilpivirine 0.12, 0.37, 1.11, 3.3, and 10 μM.
A further experiment has as its system SK-N-SH cell line. Briefly: MTT cell proliferation assay, SK-N-SH. The protocol:
as §1, §2, §3

A further experiment concerns TF-1. Briefly: EC50 in cancer cell line, rilpivirine alone. As to conditions: Homo sapiens, Erythroleukemia.
For another experiment, the system named is MV-4-11. Nature of the experiment: EC50 in cancer cell line, rilpivirine alone. The conditions noted are these: Homo sapiens, MV4-11, Biphenotypic B myelomonocytic leukemia.
The subject of a further experiment is SU-DHL-8. Briefly: EC50 in cancer cell line, rilpivirine alone. As to conditions: Homo sapiens, Large cell lymphoma.
The subject of the next experiment is PC-3. Briefly: EC50 in cancer cell line, rilpivirine alone. The conditions noted are these: Homo sapiens, Prostate.
The test system of the next experiment is CEM-C2. Nature of the experiment: EC50 in cancer cell line, rilpivirine alone. As to conditions: Homo sapiens, Acute lymphoblastic leukemia.
In another experiment the test system is KU812. Briefly: EC50 in cancer cell line, rilpivirine alone. The conditions noted are these: Homo sapiens, Chronic myelogenous leukemia.
In a further experiment the test system is COR-L105. Briefly: EC50 in cancer cell line, rilpivirine alone. The conditions noted are these: Homo sapiens, NSCLC.
A further experiment has as its system CHP-212. Nature of the experiment: EC50 in cancer cell line, rilpivirine alone. As to conditions: Homo sapiens, Neuroblastoma.

For orientation: IC50 means the concentration at which inhibition is half-maximal. The EC50 is the concentration giving half of the maximal effect. Take `Cc1cc(/C=C/C#N)cc(C)c1Nc1ccnc(Nc2ccc(C#N)cc2)n1` [rilpivirine]: the “growth of neuroblastoma cell line under rilpivirine treatment” value with SK-N-BE(2) cell line and in the experiment with SK-N-SH cell line was “successfully inhibited” throughout. Also, the IC50 with SK-N-BE(2) cell line (Homo sapiens, SKNBE2, rilpivirine alone, 72 hours) came out at 3.37 µM; in the experiment with SK-N-SH cell line (Homo sapiens, rilpivirine alone, 72 hours), 2.75 µM. Also, the EC50 was found to be 3.7 µM in the experiment on GA-10; 4.05 µM with Caki-2; 4.81 µM in the experiment on EB2; 8.27 µM in the experiment on PANC-1; 4.01 µM in the experiment on Daudi; 4.13 µM in the experiment on IM-9. In addition, the EC50 with HuTu80 worked out at 3.59 µM; with TF-1 it was 3.76 µM; with MV-4-11, 4.88 µM; with SU-DHL-8 it was 4.19 µM; in the experiment with PC-3 it was 6.23 µM; in the experiment on CEM-C2 it was 4.04 µM. Also, the EC50 stood at 4.09 µM in the experiment on KU812, 3.11 µM in the experiment with COR-L105 and 3.26 µM in the experiment on CHP-212. Also, in [1], the “expression of cleaved PARP and p-H2A.X” value is “increased gradually”.
